Source: ChEMBL document CHEMBL3763038, “Design and synthesis of a new generation of substituted purine hydroxamate analogs as histone deacetylase inhibitors” (Bioorg Med Chem, 2016)

Experiments:
[1] = biological target: Histone deacetylase (HDAC1 and HDAC2) (Homo sapiens, UniProt Q13547+Q92769); assay: Inhibition of HDAC1/2 in human HeLa cell nuclear extract using color de Lys as substrate preincubated for 5 mins followed by substrate addition measured after 30 min by microtiter plate reader analysis; assay type: cell-based
Histone deacetylase 2 = Histone deacetylase 2 (Homo sapiens, UniProt Q92769); assay: Inhibition of C-terminal GST-tagged human recombinant HDAC2 expressed in Sf9 cells after 30 mins by microtiter plate reader analysis; assay type: cell-based
[2] = Antiproliferative activity against human PC3 cells after 48 hrs by MTT assay; assay type: functional, cell-based; conditions: PC-3, 48 h
[3] = Antiproliferative activity against human KG1 cells after 48 hrs by MTT assay; assay type: functional, cell-based; conditions: KG-1, 48 h
MDA-MB-231 = assay: Antiproliferative activity against human MDA-MB-231 cells after 48 hrs by MTT assay; assay type: functional, cell-based; conditions: MDA-MB-231, 48 h
Histone deacetylase 8 = biological target: T1, Histone deacetylase 8 (Homo sapiens, UniProt Q9BY41); assay: Inhibition of C-terminal His-tagged human recombinant HDAC8 expressed in Sf9 cells after 30 mins by microtiter plate reader analysis
T1 sequence (Q9BY41 whole entry): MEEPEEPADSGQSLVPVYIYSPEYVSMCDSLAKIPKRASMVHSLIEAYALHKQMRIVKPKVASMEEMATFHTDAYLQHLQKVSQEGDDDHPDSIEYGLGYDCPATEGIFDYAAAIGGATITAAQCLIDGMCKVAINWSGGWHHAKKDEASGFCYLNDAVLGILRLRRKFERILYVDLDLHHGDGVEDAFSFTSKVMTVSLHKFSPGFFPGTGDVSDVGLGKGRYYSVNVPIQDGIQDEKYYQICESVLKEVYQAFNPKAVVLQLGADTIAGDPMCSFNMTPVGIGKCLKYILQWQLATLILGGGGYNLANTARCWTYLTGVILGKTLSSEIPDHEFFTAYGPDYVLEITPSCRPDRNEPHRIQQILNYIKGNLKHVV

Histone deacetylase 2, sequence (Q92769 whole entry): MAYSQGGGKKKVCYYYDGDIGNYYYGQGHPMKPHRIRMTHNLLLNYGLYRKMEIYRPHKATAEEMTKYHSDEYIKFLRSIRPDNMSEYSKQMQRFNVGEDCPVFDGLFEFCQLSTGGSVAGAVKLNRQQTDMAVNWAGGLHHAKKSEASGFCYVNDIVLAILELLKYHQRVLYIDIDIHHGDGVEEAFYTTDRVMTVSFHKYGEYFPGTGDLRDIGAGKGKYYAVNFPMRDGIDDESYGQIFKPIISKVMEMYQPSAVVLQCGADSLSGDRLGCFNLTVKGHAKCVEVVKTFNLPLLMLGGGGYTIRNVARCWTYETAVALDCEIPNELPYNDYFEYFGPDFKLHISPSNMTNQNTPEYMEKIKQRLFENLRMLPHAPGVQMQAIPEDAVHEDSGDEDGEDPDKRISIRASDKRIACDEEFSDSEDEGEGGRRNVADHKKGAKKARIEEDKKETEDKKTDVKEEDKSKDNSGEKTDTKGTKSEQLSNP

Row | Compound | IC50 [1] | IC50 (Histone deacetylase 2) | IC50 [2] | IC50 [3] | IC50 (MDA-MB-231) | IC50 (Histone deacetylase 8)
1 | CCCCn1cnc2c(NCCCCCC(=O)NO)nc(N3CCOCC3)nc21 | 0.13 µM | – | – | – | – | –
2 | O=C(CCCCCCNc1nc(N2CCOCC2)nc2[nH]cnc12)NO | 0.157 µM | – | – | – | – | –
3 | CC(C)Cn1cnc2c(NCCCCCCC(=O)NO)nc(Cl)nc21 | 0.027 µM | 0.165 µM | 1.38 µM | 0.86 µM | 1.65 µM | 2.01 µM
4 | CC(C)n1cnc2c(NCCCCCCC(=O)NO)nc(N)nc21 | – | – | 6.86 µM | 3.43 µM | 3.3 µM | 3.13 µM
5 | O=C(CCCCCNc1nc(Cl)nc2c1ncn2Cc1ccccc1)NO | 0.026 µM | 0.056 µM | 2.83 µM | 0.32 µM | 1.12 µM | 1.44 µM
